Results from patent US9708318B2, “Bicyclic heterocycles as FGFR4 inhibitors” (Incyte Corporation, priority 2015, dated 2017).
Like-named read-outs stand apart in the source and are kept apart here.

Legend:
FGFR2 = FGFR2 (Homo sapiens (Human), UniProt P21802); experiment: FGFR Enzymatic Assay (FRET peptide phosphorylation), FGFR2; type: biochemical
Protocol: (§1) The inhibitor potency of the exemplified compounds was measured in an enzyme assay that measures peptide phosphorylation using FRET measurements to detect product formation. Inhibitors were serially diluted in DMSO and a volume of 0.5 μL was transferred to the wells of a 384-well plate.
(§2) The enzymes were purchased from Millipore or Invitrogen.
(§3) GraphPad prism3 was used to analyze the data.

FGFR3 enzyme = FGFR3 enzyme (Homo sapiens (Human), UniProt P22607); experiment: FGFR Enzymatic Assay (FRET peptide phosphorylation), FGFR3; type: biochemical; details: for FGFR1/FGFR3 IC50 ratio / FGFR4/FGFR3 IC50 ratio: FGFR3 selectivity; for IC50: read-out: FGFR3 IC50
Chain of FGFR3 enzyme (P22607 23-806): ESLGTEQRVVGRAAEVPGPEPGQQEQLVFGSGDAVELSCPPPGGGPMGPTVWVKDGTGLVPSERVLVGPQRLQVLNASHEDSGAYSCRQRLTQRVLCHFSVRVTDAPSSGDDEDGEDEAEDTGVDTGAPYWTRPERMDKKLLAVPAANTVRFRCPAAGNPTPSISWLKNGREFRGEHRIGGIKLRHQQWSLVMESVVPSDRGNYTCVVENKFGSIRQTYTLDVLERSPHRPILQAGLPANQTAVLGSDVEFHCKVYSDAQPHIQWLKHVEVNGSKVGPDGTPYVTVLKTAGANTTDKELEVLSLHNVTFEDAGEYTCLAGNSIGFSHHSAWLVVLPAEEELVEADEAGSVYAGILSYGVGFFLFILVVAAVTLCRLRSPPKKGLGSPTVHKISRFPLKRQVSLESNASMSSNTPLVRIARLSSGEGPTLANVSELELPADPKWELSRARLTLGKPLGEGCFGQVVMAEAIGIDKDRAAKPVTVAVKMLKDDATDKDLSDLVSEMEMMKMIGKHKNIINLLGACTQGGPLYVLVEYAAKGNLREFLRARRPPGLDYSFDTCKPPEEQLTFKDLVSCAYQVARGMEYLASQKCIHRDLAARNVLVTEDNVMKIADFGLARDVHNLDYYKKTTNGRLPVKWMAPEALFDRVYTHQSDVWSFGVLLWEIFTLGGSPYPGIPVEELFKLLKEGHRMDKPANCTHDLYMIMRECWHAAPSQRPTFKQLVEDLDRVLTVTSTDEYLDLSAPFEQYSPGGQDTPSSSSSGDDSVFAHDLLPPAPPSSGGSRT
Protocol: as §1, §3

FGFR1 = FGFR1 (Homo sapiens (Human), UniProt P11362); experiment: FGFR Enzymatic Assay (FRET peptide phosphorylation), FGFR1
Chain of FGFR1 (P11362 22-822): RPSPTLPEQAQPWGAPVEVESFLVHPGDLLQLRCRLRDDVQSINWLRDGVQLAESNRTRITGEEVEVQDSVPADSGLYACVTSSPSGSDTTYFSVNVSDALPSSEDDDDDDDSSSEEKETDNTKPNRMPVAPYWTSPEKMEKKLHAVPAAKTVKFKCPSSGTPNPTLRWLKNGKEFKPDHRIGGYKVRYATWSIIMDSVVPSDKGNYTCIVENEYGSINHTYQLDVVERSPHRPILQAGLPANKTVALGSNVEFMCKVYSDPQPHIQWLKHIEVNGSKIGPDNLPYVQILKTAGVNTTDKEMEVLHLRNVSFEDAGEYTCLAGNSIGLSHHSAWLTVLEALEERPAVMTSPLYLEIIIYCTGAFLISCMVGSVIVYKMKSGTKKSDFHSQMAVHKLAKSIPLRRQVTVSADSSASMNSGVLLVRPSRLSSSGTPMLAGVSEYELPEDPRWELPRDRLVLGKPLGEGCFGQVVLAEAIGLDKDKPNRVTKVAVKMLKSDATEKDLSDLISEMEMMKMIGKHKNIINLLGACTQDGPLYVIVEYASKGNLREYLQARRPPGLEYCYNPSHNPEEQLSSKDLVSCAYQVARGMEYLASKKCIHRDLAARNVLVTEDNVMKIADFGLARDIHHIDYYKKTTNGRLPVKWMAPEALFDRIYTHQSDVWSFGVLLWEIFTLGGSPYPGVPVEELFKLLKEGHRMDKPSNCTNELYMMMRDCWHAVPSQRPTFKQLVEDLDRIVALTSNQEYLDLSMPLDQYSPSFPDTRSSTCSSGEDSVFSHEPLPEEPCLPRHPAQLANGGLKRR

FGFR4 = FGFR4 (Homo sapiens (Human), UniProt P22455); experiment: FGFR Enzymatic Assay (FRET peptide phosphorylation), FGFR4; type: biochemical
Chain of FGFR4 (P22455 22-802): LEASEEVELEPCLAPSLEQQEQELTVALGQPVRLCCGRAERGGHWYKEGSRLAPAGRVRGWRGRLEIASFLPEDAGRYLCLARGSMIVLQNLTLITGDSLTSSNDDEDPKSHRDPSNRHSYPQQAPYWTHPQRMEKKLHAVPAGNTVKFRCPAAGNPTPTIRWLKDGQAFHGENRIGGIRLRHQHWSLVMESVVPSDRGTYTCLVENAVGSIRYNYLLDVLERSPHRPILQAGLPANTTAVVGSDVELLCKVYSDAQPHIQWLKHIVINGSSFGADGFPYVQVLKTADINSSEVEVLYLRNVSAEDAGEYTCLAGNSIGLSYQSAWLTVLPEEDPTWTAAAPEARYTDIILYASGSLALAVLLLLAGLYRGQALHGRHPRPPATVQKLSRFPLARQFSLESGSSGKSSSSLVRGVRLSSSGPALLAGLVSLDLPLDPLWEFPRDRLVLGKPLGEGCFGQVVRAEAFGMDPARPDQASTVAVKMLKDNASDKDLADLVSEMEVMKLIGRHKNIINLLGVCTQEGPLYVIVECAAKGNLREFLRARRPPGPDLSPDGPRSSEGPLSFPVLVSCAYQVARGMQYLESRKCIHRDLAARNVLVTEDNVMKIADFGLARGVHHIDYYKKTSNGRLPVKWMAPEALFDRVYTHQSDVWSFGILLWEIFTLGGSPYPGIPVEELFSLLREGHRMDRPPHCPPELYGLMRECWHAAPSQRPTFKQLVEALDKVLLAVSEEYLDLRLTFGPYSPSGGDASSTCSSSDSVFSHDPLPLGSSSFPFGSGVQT
Protocol: as §1, §2, §3

[1] = FGFR1 IC50 (nM), pre-incubated for 4 hours
[2] = read-out: FGFR1 IC50, pre-incubated for 4 hours
[3] = pre-incubated for 5 to 10 minutes

Chain of FGFR2 (P21802 22-821): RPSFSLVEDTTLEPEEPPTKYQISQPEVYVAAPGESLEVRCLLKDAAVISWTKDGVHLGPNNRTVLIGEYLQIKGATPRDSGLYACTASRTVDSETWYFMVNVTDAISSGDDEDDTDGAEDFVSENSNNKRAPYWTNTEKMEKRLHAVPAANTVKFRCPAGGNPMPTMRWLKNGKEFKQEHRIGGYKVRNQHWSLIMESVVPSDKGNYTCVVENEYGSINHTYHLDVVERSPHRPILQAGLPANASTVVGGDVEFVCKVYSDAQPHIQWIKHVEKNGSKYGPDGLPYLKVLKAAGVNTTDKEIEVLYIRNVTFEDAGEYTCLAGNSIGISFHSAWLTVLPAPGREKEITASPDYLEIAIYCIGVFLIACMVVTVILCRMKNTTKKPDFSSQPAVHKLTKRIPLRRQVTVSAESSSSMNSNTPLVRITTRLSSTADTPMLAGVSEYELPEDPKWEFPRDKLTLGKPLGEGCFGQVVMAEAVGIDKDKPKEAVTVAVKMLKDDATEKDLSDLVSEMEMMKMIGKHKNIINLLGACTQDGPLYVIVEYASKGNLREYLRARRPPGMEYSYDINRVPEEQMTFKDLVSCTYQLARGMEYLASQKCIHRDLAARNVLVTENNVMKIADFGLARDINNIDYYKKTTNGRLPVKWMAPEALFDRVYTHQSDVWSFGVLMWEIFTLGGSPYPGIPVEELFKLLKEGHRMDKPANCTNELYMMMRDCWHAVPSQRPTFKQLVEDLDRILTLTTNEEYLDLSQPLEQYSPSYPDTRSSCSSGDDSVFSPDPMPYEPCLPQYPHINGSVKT

Structure (SMILES) | IC50 (FGFR2; pre-incubated for 4 hours) [nM] | FGFR1/FGFR3 IC50 ratio (FGFR3 enzyme; pre-incubated for 4 hours) | FGFR4/FGFR3 IC50 ratio (FGFR3 enzyme; pre-incubated for 4 hours) | IC50 (FGFR3 enzyme; pre-incubated for 4 hours) [nM] | IC50 (FGFR1; [1]) [nM] | IC50 (FGFR4; pre-incubated for 4 hours) [nM] | IC50 (FGFR1; [2]) [nM] | IC50 (FGFR2; [3]) [nM] | IC50 (FGFR3 enzyme; [3]) [nM] | IC50 (FGFR1; FGFR1 IC50 (nM), pre-incubated for 5 to 10 minutes) [nM] | IC50 (FGFR4; [3]) [nM]
COc1cc(OC)c(F)c(N2Cc3cnc(-c4cn(CC#N)nc4C)cc3C3(CC3)C2=O)c1F [Example 153, 2-(4-(2′-(2,6-difluoro-3,5-dimethoxyphenyl)-3′-oxo-2′,3′-dihydro-1′H-spiro[cyclopropane-1,4′-[2,7]naphthyridine]-6′-yl)-3-methyl-1H-pyrazol-1-yl)acetonitrile] | 10 to 30 | >5 | >3 | < 10 | 30 to 200 | 10 to 30 |  |  |  |  | 
CCN1C(=O)N(c2cc(OC)cc(C(=O)NC)c2F)Cc2cnc(-c3ccc(C4(C#N)CCC4)nc3)cc21 [Example 28, 3-(7-(6-(1-cyanocyclobutyl)pyridin-3-yl)-1-ethyl-2-oxo-1,2-dihydropyrido[4,3-d]pyrimidin-3(4H)-yl)-2-fluoro-5-methoxy-N-methylbenzamide] | 30 to 200 |  |  | 30 to 200 |  | > 200 | > 200 |  |  |  | 
COc1cc(OC)c(F)c(N2Cc3cnc(-c4cn(C)nc4C)cc3N(Cc3ccc(F)cc3)C2=O)c1F [Example 34, 3-(2,6-difluoro-3,5-dimethoxyphenyl)-7-(1,3-dimethyl-1H-pyrazol-4-yl)-1-(4-fluorobenzyl)-3,4-dihydropyrido[4,3-d]pyrimidin-2(1H)-one] | 10 to 30 | >5 | >10 | < 10 | 30 to 200 | 30 to 200 |  |  |  |  | 
COc1cc(OC)c(F)c(N2Cc3cnc(-c4cnn(C5(CC#N)CN(C(C)=O)C5)c4)cc3C3(CC3)C2=O)c1F [Example 56, 2-(1-acetyl-3-(4-(2′-(2,6-difluoro-3,5-dimethoxyphenyl)-3′-oxo-2′,3′-dihydro-1′H-spiro[cyclopropane-1,4′-[2,7]naphthyridine]-6′-yl)-1H-pyrazol-1-yl)azetidin-3-yl)acetonitrile] | 30 to 200 | >5 | >1 | 30 to 200 |  | 30 to 200 | > 200 |  |  |  | 
COc1cc(OC)c(F)c(N2Cc3cnc(-c4cnn(CC5CN(S(C)(=O)=O)C5)c4)cc3C3(CC3)C2=O)c1F [Example 166, 2′-(2,6-difluoro-3,5-dimethoxyphenyl)-6′-(1-((1-(methylsulfonyl)azetidin-3-yl)methyl)-1H-pyrazol-4-yl)-1′H-spiro[cyclopropane-1,4′-[2,7]naphthyridin]-3′(2′H)-one] | < 10 | >3 | >3 | < 10 | 10 to 30 | 10 to 30 |  |  |  |  | 
COc1cc(OC)c(F)c(N2Cc3cnc(-c4cn(C)nc4C)cc3N(c3ccccc3F)C2=O)c1F [Example 110, 3-(2,6-difluoro-3,5-dimethoxyphenyl)-7-(1,3-dimethyl-1H-pyrazol-4-yl)-1-(2-fluorophenyl)-3,4-dihydropyrido[4,3-d]pyrimidin-2(1H)-one] | < 10 | >3 | >5 | < 10 | 10 to 30 | 30 to 200 |  |  |  |  | 
COc1cc(OC)c(F)c(N2Cc3cnc(-c4cnn(CCN5CCOCC5)c4)cc3C3(CC3)C2=O)c1F [Example 157, 2′-(2,6-difluoro-3,5-dimethoxyphenyl)-6′-(1-(2-morpholinoethyl)-1H-pyrazol-4-yl)-1′H-spiro[cyclopropane-1,4′-[2,7]naphthyridin]-3′(2′H)-one] | < 10 | >5 | >3 | < 10 | 10 to 30 | < 10 |  |  |  |  | 
COc1cc(OC)c(F)c(N2Cc3cnc(-c4cn(C)nc4C)cc3N(Cc3cccnn3)C2=O)c1F [Example 88, 3-(2,6-difluoro-3,5-dimethoxyphenyl)-7-(1,3-dimethyl-1H-pyrazol-4-yl)-1-(pyridazin-3-ylmethyl)-3,4-dihydropyrido[4,3-d]pyrimidin-2(1H)-one] | < 10 | >5 | >10 | < 10 |  | < 10 | < 10 |  |  |  | 
COC(=O)Nc1ccc(N2C(=O)N(c3c(F)c(OC)cc(OC)c3F)Cc3cnc(-c4cn(C)nc4C)cc32)cc1 [Example 123, Methyl 4-(3-(2,6-difluoro-3,5-dimethoxyphenyl)-7-(1,3-dimethyl-1H-pyrazol-4-yl)-2-oxo-3,4-dihydropyrido[4,3-d]pyrimidin-1(2H)-yl)phenylcarbamate] | < 10 | >5 | >3 | < 10 | 30 to 200 | 10 to 30 |  |  |  |  | 
CCN1C(=O)N(c2c(F)c(OC)cc(OC)c2F)Cc2cnc(-c3cccnc3)cc21 [Example 23, 3-(2,6-difluoro-3,5-dimethoxyphenyl)-1-ethyl-7-(pyridin-3-yl)-3,4-dihydropyrido[4,3-d]pyrimidin-2(1H)-one] | < 10 | >5 |  | < 10 | 30 to 200 | < 10 |  |  |  |  | 
COc1cc(OC)c(F)c(N2Cc3cnc(-c4cn(C)nc4C)cc3N(Cc3cc(C(C)C)on3)C2=O)c1F [Example 93, 3-(2,6-difluoro-3,5-dimethoxyphenyl)-7-(1,3-dimethyl-1H-pyrazol-4-yl)-1-((5-isopropylisoxazol-3-yl)methyl)-3,4-dihydropyrido[4,3-d]pyrimidin-2(1H)-one] | < 10 | >5 | >5 | < 10 | 30 to 200 | 30 to 200 |  |  |  |  | 
COc1cc(OC)c(F)c(N2Cc3cnc(-c4cn(C)nc4C)cc3N(Cc3cnn(CC4CCCO4)c3)C2=O)c1F (stereo not shown) [Example 127, 3-(2,6-difluoro-3,5-dimethoxyphenyl)-7-(1,3-dimethyl-1H-pyrazol-4-yl)-1-((1-((tetrahydrofuran-2-yl)methyl)-1H-pyrazol-4-yl)methyl)-3,4-dihydropyrido[4,3-d]pyrimidin-2(1H)-one] |  |  |  |  |  |  |  | 10 to 30 | 10 to 30 | 30 to 200 | 30 to 200
COc1cnc(N2C(=O)N(c3c(F)c(OC)cc(OC)c3F)Cc3cnc(-c4cn(C)nc4C)cc32)cn1 [Example 112, 3-(2,6-difluoro-3,5-dimethoxyphenyl)-7-(1,3-dimethyl-1H-pyrazol-4-yl)-1-(5-methoxypyrazin-2-yl)-3,4-dihydropyrido[4,3-d]pyrimidin-2(1H)-one] | < 10 | >3 | >5 | < 10 | 30 to 200 | 30 to 200 |  |  |  |  | 
COc1cc(OC)c(F)c(N2Cc3cnc(-c4cn(C)nc4C)cc3N(Cc3ccncn3)C2=O)c1F [Example 65, 3-(2,6-difluoro-3,5-dimethoxyphenyl)-7-(1,3-dimethyl-1H-pyrazol-4-yl)-1-(pyrimidin-4-ylmethyl)-3,4-dihydropyrido[4,3-d]pyrimidin-2(1H)-one] | < 10 | >5 | >10 | < 10 | 30 to 200 | 30 to 200 |  |  |  |  | 
CCn1cc(CN2C(=O)N(c3c(F)c(OC)cc(OC)c3F)Cc3cnc(-c4cn(C)nc4C)cc32)cn1 [Example 39, 3-(2,6-difluoro-3,5-dimethoxyphenyl)-7-(1,3-dimethyl-1H-pyrazol-4-yl)-1-((1-ethyl-1H-pyrazol-4-yl)methyl)-3,4-dihydropyrido[4,3-d]pyrimidin-2(1H)-one] | < 10 | >10 | >10 | < 10 | 10 to 30 | < 10 |  |  |  |  | 
